From patent publication US10357481B2 (MERCK SHARP & DOHME CORP., priority 2015, dated 2019)

Target: T1, human PDE2A1 (Homo sapiens, UniProt O00408)
T1 construct: GST; purchased BPS Bioscience (San Diego, Calif.) 60020; host or cells: insect cells
Assay: IMAP FP PDE selectivity panel, human PDE2A1
Type: biochemical
Conditions: Lab B; read-out: Human PDE2 Ki (nM) Lab B
Procedure, shortened: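 Human PDE2A1 tested alongside PDE1–11 by IMAP fluorescence polarization at room temperature. Substrate was 50 nM FAM-cAMP plus 1000 nM cGMP, buffer pH 7.2 with MgCl2 and DTT, enzyme set for 20% conversion. Ten 3-fold compound dilutions; 60 min reaction, then IMAP binding solution, 1 h, parallel/perpendicular fluorescence read.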

T1 sequence (O00408 1-920 isoform O00408-2): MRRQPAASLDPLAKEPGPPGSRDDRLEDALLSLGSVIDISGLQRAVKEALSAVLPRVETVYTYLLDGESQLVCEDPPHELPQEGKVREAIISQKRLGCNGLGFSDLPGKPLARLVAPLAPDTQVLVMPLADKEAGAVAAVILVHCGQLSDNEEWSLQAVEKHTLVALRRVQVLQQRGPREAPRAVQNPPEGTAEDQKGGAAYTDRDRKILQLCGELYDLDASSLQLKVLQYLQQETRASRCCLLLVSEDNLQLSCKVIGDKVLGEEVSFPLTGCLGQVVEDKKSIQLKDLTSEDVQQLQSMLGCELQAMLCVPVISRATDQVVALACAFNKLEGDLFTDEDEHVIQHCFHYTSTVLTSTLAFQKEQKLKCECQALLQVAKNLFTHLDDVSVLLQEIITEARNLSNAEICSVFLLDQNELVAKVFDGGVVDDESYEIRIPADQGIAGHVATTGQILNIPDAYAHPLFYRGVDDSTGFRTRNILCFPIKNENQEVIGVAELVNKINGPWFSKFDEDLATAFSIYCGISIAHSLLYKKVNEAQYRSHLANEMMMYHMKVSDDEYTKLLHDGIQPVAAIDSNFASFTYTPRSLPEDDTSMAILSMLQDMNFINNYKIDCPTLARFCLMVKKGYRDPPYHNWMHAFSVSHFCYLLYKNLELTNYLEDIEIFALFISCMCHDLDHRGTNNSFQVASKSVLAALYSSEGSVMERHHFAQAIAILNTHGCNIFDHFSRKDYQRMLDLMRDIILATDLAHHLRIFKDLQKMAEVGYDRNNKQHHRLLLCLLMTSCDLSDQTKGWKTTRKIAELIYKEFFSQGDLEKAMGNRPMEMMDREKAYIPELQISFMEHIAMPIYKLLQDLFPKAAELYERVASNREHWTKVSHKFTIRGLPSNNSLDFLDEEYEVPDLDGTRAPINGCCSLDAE

Row | Structure (SMILES) | Ki
1 | CN(C)c1cc(N[C@@H](c2ccc(C(F)(F)F)c(F)c2)C(C)(C)O)n2ncnc2n1 (single isomer, unassigned) [Example 244] | 377 nM
2 | Cc1cc(N(C)C(c2ccc(OC(F)(F)F)c(F)c2)C(C)(C)O)n2ncnc2n1 (single isomer, unassigned) [Example 247, (R)- or (S)-1-(3-Fluoro-4-(trifluoromethoxy)phenyl)-2-methyl-1-(methyl(5-methyl-[1,2,4]triazolo [1,5-a]pyrimidine-7-yl)amino)propan-2-ol] | 24 nM
3 | Cc1cc(N(C)C(c2ccc(OC(F)(F)F)c(F)c2)C(C)(C)O)n2ncnc2n1 (single isomer, unassigned) [Example 248, (S)- or (R)-1-(3-Fluoro-4-(trifluoromethoxy)phenyl)-2-methyl-1-(methyl(5-methyl-[1,2,4]triazolo [1,5-a]pyrimidine-7-yl)amino) propan-2-ol] | > 2960 nM
4 | CC(C)(N)C(Nc1cc(C(F)(F)F)nc2ncnn12)c1ccc(C(F)(F)F)c(F)c1 (single isomer, unassigned) [Example 253, (R)- or (S)-1-(3-Fluoro-4-(trifluoromethyl)phenyl)-2-methyl-N^1-(5-(trifluoromethyl)-[1,2,4]triazolo [1,5-a]pyrimidin-7-yl) propane-1,2-diamine] | 83 nM
5 | CC(C)(N)C(Nc1cc(C(F)(F)F)nc2ncnn12)c1ccc(C(F)(F)F)c(F)c1 (single isomer, unassigned) [Example 254, (S)- or (R)-1-(3-Fluoro-4-(trifluoromethyl)phenyl)-2-methyl-N^1-(5-(trifluoromethyl)-[1,2,4]triazolo [1,5-a]pyrimidin-7-yl) propane-1,2-diamine] | > 2960 nM
6 | Cc1cc(O[C@@H](c2ccc(C(F)(F)F)cc2)C(C)(C)C)n2ncnc2n1 (single isomer, unassigned) [Example 260] | 14 nM
7 | Cc1cc(O[C@H](c2ccc(C(F)(F)F)cc2)C(C)(C)C)n2ncnc2n1 (single isomer, unassigned) [Example 261] | > 2960 nM
8 | Cc1cc(N[C@H](c2ccc(C(F)(F)F)c(F)c2)C(C)(C)O)nc2ncnn12 (single isomer, unassigned) [Example 291] | 183 nM
9 | Cc1cc(N[C@@H](c2ccc(C(F)(F)F)c(F)c2)C(C)(C)O)nc2ncnn12 (single isomer, unassigned) [Example 292] | > 2960 nM
10 | CC(C)c1cc(NC(c2ccc(C(F)(F)F)cc2)C(C)(C)O)n2ncnc2n1 (stereo in doubt) [Example 156, (1S)-2-Methyl-1-{[5-(1-methylethyl)[1,2,4]triazolo[1,5-a]pyrimidin-7-yl]amino}-1-[4-(trifluoromethyl)phenyl]propan-2-ol] | 636 nM
11 | CC(C)(O)C(Nc1cc(C2CC2)nc2ncnn12)c1ccc(C(F)(F)F)cc1 (stereo in doubt) [Example 157, (1S)-1-[(5-Cyclopropyl[1,2,4]triazolo[1,5-a]pyrimidin-7-yl)amino]-2-methyl-1-[4-(trifluoromethyl)phenyl]propan-2-ol] | 37 nM
12 | CC(C)(C)c1cc(NC(c2ccc(C(F)(F)F)cc2)C(C)(C)O)n2ncnc2n1 (stereo in doubt) [Example 158, (1S)-1-[(5-tert-Butyl[1,2,4]triazolo[1,5-a]pyrimidin-7-yl)amino]-2-methyl-1-[4-(trifluoromethyl)phenyl]propan-2-ol] | ~2340 nM
13 | Cc1cc(NC(c2ccc(OC(F)(F)F)cc2F)C(C)(C)O)n2nc(N)nc2n1 (stereo in doubt) [Example 258, (1S)-1-[(2-Amino-5-methyl[1,2,4]triazolo[1,5-a]pyrimidin-7-yl)amino]-1-[2-fluoro-4-(trifluoromethoxy)phenyl]-2-methylpropan-2-ol] | 6 nM
14 | Cc1cc(N[C@H](C)c2ccc(C(F)(F)F)cc2)n2ncnc2n1 [Example 1, 5-Methyl-N-{(1R)-1-[4-(trifluoromethyl)phenyl]ethyl}[1,2,4]triazolo[1,5-a]pyrimidin-7-amine] | 175 nM
15 | Cc1cc(N[C@@H](C)c2ccc(C(F)(F)F)cc2)n2ncnc2n1 [Example 2, 5-Methyl-N-{(1S)-1-[4-(trifluoromethyl)phenyl]ethyl}[1,2,4]triazolo[1,5-a]pyrimidin-7-amine] | ~1540 nM
16 | Cc1cc(N[C@H](C)c2ccc(C(F)(F)F)c(F)c2)n2ncnc2n1 [Example 3, N-{(1R)-1-[3-Fluoro-4-(trifluoromethyl)phenyl]ethyl}-5-methyl[1,2,4]triazolo[1,5-a] pyrimidin-7-amine] | 115 nM
17 | Cc1cc(N[C@H](C)c2ccc(CC(F)(F)F)cc2)n2ncnc2n1 [Example 4, 5-Methyl-N-{(1R)-1-[4-(2,2,2-trifluoroethyl)phenyl]ethyl}[1,2,4] triazolo[1,5-a]pyrimidin-7-amine] | 108 nM
18 | Cc1cc(N[C@H](C)c2ccc(C(F)(F)F)c(Cl)c2)n2ncnc2n1 [Example 5, N-{(1R)-1-[3-Chloro-4-(trifluoromethyl)phenyl]ethyl}-5-methyl[1,2,4]triazolo[1,5-a] pyrimidin-7-amine] | 113 nM

Row | Structure (SMILES) | Ki
19 | Cc1cc(N[C@H](C)c2cc(F)c(C(F)(F)F)cc2F)n2ncnc2n1 [Example 6, N-{(1R)-1-[2,5-Difluoro-4-(trifluoromethyl)phenyl]ethyl}-5-methyl[1,2,4]triazolo[1,5-a] pyrimidin-7-amine] | 482 nM
20 | Cc1cc(N[C@H](C)c2ccc(OC(F)(F)F)cc2)n2ncnc2n1 [Example 7, 5-Methyl-N-{(1R)-1-[4-(trifluoromethoxy)phenyl]ethyl} [1,2,4]triazolo[1,5-a]pyrimidin-7-amine] | 132 nM
21 | Cc1cc(N[C@H](C)c2ccc(OC(F)(F)F)c(F)c2)n2ncnc2n1 [Example 8, N-{(1R)-1-[3-Fluoro-4-(trifluoromethoxy)phenyl]ethyl}-5-methyl[1,2,4]triazolo[1,5-a] pyrimidin-7-amine] | 57 nM
22 | Cc1cc(N[C@H](C)c2ccc(OC(F)(F)F)c(Cl)c2)n2ncnc2n1 [Example 9, N-{(1R)-1-[3-Chloro-4-(trifluoromethoxy)phenyl]ethyl}-5-methyl[1,2,4]triazolo[1,5-a] pyrimidin-7-amine] | 138 nM
23 | Cc1cc(N[C@H](C)c2ccc(SC(F)(F)F)cc2)n2ncnc2n1 [Example 10, 5-Methyl-N-[(1R)-1-{4-[(trifluoromethyl)sulfanyl]phenyl}ethyl][1,2,4]triazolo[1,5-a]pyrimidin-7-amine] | 21 nM
24 | Cc1cc(N[C@H](C)c2ccc(SC(F)(F)F)c(F)c2)n2ncnc2n1 [Example 11, N-[(1R)-1-{3-Fluoro-4-[(trifluoromethyl)sulfanyl]phenyl}ethyl]-5-methyl[1,2,4]triazolo [1,5-a]pyrimidin-7-amine] | 18 nM
25 | Cc1cc(N[C@H](C)c2ccc(S(F)(F)(F)(F)F)cc2)n2ncnc2n1 [Example 12, 5-Methyl-N-{(1R)-1-[4-(pentafluoro-λ^6-sulfanyl)phenyl)ethyl} [1,2,4]triazolo[1,5-a]pyrimidin-7-amine] | 68 nM
26 | Cc1cc(N[C@H](C)c2ccc(C(C)C)cc2)n2ncnc2n1 [Example 13, 5-Methyl-N-{(1R)-1-[4-(1-methylethyl)phenyl]ethyl}[1,2,4] triazolo[1,5-a]pyrimidin-7-amine] | 122 nM
27 | Cc1cc(N[C@H](C)c2ccc(C3CC3)c(F)c2)n2ncnc2n1 [Example 14, N-[(1R)-1-(4-Cyclopropyl-3-fluorophenyl)ethyl]-5-methyl[1,2,4]triazolo[1,5-a] pyrimidin-7-amine] | 48 nM
28 | Cc1cc(N[C@H](C)c2ccc(C3(C)CC3)cc2)n2ncnc2n1 [Example 15, 5-Methyl-N-{(1R)-1-[4-(1-methylcyclopropyl)phenyl]ethyl} [1,2,4]triazolo[1,5-a]pyrimidin-7-amine] | 173 nM
29 | CC[C@@H](Nc1cc(C)nc2ncnn12)c1ccc(C(F)(F)F)c(F)c1 [Example 16, N-{(1R)-1-[3-Fluoro-4-(trifluoromethyl)phenyl]propyl}-5-methyl[1,2,4]triazolo[1,5-a] pyrimidin-7-amine] | 61 nM
30 | CC[C@@H](Nc1cc(C)nc2ncnn12)c1ccc(SC(F)(F)F)cc1 [Example 17, 5-Methyl-N-[(1R)-1-{4-[(trifluoromethyl)sulfanyl]phenyl}propyl][1,2,4]triazolo[1,5-a] pyrimidin-7-amine] | 15 nM
31 | CC[C@@H](Nc1cc(C)nc2ncnn12)c1ccc(SC(F)(F)F)c(F)c1 [Example 18, N-[(1R)-1-{3-Fluoro-4-[(trifluoromethyl)sulfanyl]phenyl}propyl]-5-methyl[1,2,4]triazolo[1,5-a]pyrimidin-7-amine] | 15 nM
32 | Cc1cc(N[C@@H](c2ccc(C(F)(F)F)cc2)C(C)C)n2ncnc2n1 [Example 19, 5-Methyl-N-{(1R)-2-methyl-1-[4-(trifluoromethyl)phenyl]propyl} [1,2,4]triazolo[1,5-a]pyrimidin-7-amine] | 36 nM
33 | Cc1cc(N[C@@H](c2ccc(C(F)(F)F)c(F)c2)C(C)C)n2ncnc2n1 [Example 20, N-{(1R)-1-[3-Fluoro-4-(trifluoromethyl)phenyl]-2-methylpropyl}-5-methyl[1,2,4]triazolo[1,5-a] pyrimidin-7-amine] | 28 nM
34 | Cc1cc(N[C@@H](c2ccc(SC(F)(F)F)c(F)c2)C(C)C)n2ncnc2n1 [Example 21, N-[(1R)-1-{3-Fluoro-4-[(trifluoromethyl)sulfanyl]phenyl}-2-methylpropyl]-5-methyl[1,2,4]triazolo[1,5-a] pyrimidin-7-amine] | 4 nM
35 | Cc1cc(N[C@@H](c2ccc(S(F)(F)(F)(F)F)cc2)C(C)C)n2ncnc2n1 [Example 22, 5-Methyl-N-{(1R)-2-methyl-1-[4-(pentafluoro-λ^6-sulfanyl)phenyl]propyl}[1,2,4]triazolo[1,5-a] pyrimidin-7-amine] | 13 nM
36 | Cc1cc(N[C@@H](c2ccc(OC(F)F)cc2)C(C)C)n2ncnc2n1 [Example 23, N-{(1R)-1-[4-(Difluoromethoxy)phenyl]-2-methylpropyl}-5-methyl [1,2,4]triazolo[1,5-a]pyrimidin-7-amine] | 45 nM
